Reference: patent publication US6855723B2, “Methods of modulating serine/threonine protein kinase function with azabenzimidazole-based compounds” (Zentaris GmbH, priority 1997, dated 2005)
Read-outs that look alike come from different tables or passages of the source.

Key:
[1] = test system: A549 human lung carcinoma cells; test: Growth of A549 cells (SRB); type: cell-based; conditions: cell growth
Procedure: Assay Measuring Effect of Azabenzimidazole-Based Compounds on Growth of A549 Cells
The following assay measures growth rates for A549 cells. The purpose of the assay is to determine the effects of compounds on the growth of A549 human lung carcinoma cells. A549 cells are readily accessible from commercial sources, such as ATCC (CCL185).
• 96-well flat bottom sterile plates • 96-well round bottom sterile plates • sterile 25 mL or 100 mL reservoir • pipets, multi-channel pipetman • sterile pipet tips sterile 15 mL and 50 mL tubes Reagents • 0.4% SRB in 1% acetic acid • 10 mM Tris base • 10% TCA • 1% acetic acid • sterile DMSO (Sigma) • compound in DMSO (100 mM or less stock solution) • Trypsin-EDTA (GIBCO BRL) Cell Line and Growth Medium • A549 human lung carcinoma cells (ATCC CCL185) • 10% fetal calf serum in Ham's F12-K Protocol Day 0: Cell Plating This part of assay is carried out in a laminar flow hood.
1. Trypsinize cells. Transfer 200 μL of cell suspension to 10 mL of isotone. Count cells with a Coulter Counter.
2. Dilute cells in growth medium to 20,000 cell/mL. Transfer 100 μL of cells to each well in a 96-well flat bottom plate to give 2000 cells/well.
3. Use half of plate (4 rows) for each compound and quadruplicate wells for each compound concentration, and a set of 4 wells for medium control.
4. […]
6. Read plates on Dynatech ELISA Plate Reader at 570 nm with reference at 630 nm.

[2] = target: T1, RAF-1 (Homo sapiens, UniProt P04049); test: RAF-1 ELISA assay (RAF-1 phosphorylation of MEK and MAPK); type: biochemical; conditions: RAF-1 phosphorylation assay, lysates from RAS/RAF infected Sf9 cells, T-MEK and His-MAPK substrates
T1 construct: made in house; host or cells: Sf9 (Spodoptera frugiperda) insect cells co-infected with RAS and RAF recombinant baculoviruses
From the text: Assay Measuring Phosphorylating Function of RAF
The following assay reports the amount of RAF-catalyzed phosphorylation of its target protein MEK as well as MEK's target MAPK. The RAF gene sequence is described in Bonner et al., 1985, Molec. Cell. Biol. 5: 1400-1407, and is readily accessible in multiple gene sequence data banks. Construction of the nucleic acid vector and cell lines utilized for this portion of the invention are fully described in Morrison et al., 1988, Proc. Natl. Acad. Sci. USA 85: 8855-8859.
All of the following steps were conducted at room temperature unless specifically indicated.
1. ELISA plate coating: ELISA wells are coated with 100 μL of Sheep anti mouse affinity purified antiserum (1 μg/100 μL coating buffer) over night at 4° C. […]
11. […] Insert the holder into radioactive detection apparatus and quantify the radioactive phosphorous on the filter mats.
Alternatively, 40 μL aliquots from individual wells of the assay plate can be transferred to the corresponding Positions on the phosphocellulose filter mat. […] Insert the holder into a detection device and quantify the radioactive phosphorous on the filter mats.
IC50 values were measured according to the protocol for the following azabenzimidazole-based compounds in the RAF-1 ELISA assay: [drawing 5] […] The IC50 values measured in the RAF-1 phosphorylation assay are depicted in Table 1: […]

[3] = test system: 3T3/H-Ras (NIH 3T3 clone 7 cells expressing genomic fragment of oncogenic H-Ras); test: Growth of NIH 3T3 cells over expressing H-Ras (SRB); type: cell-based; conditions: Mus musculus, NIH3T3, 72 h; cell growth, 2% calf serum, 3 days incubation
Procedure: Assay Measuring the Effect of Azabenzimidazole-Based Compounds on the Growth of Cells Expression RAS
The following assay measures growth rates for NIH-3T3 cells expressing RAS. The purpose of the assay is to determine the effects of compounds on the growth of NIH 3T3 cells over expressing H-Ras.
• 96-well flat bottom sterile plates • 96-well round bottom sterile plates • sterile 25 mL or 100 mL reservoir • pipets, multi-channel pipetman • sterile pipet tips • sterile 15 mL and 50 mL tubes Reagents • 0.4% SRB in 1% acetic acid • 10 mM Tris base • 10% TCA • 1% acetic acid • sterile DMSO (Sigma) • compound in DMSO (100 mM or less stock solution) • Trypsin-EDTA (GIBCO BRL) Cell Line • 3T3/H-Ras (NIH 3T3 clone 7 cells expressing genomic fragment of oncogenic H-Ras).
The cells can be constructed using the following protocol: • 1. Subclone a gene fragment encoding Ras into a commercially available vector that will stably transfect NIH-3T3 cells. The fragment is from the genomic transforming allele of cHa-ras. • 2. Transfect NIH-3T3 cells with the subcloned vector by a calcium phosphate method. Select cells expressing the Ras construct in 2% serum in DMEM. Visible foci are observed after 2 weeks. Pool the transformed cells to generate a stably transformed cell line. […]
6. Read plates on Dynatech ELISA Plate REader at 570 nm with reference at 630 nm.

[4] = target: T2, EGF Receptor (Homo sapiens, UniProt P00533); test: EGF receptor phosphorylation assay in whole cells (EGFR-NIH3T3 assay); type: cell-based; conditions: EGF receptor kinase activity in whole cells
T2 construct: expressed in transfected cells; host or cells: NIH3T3 cells (EGFR-NIH3T3)
Procedure: Assay Measuring Phosphorylating Function of EGF Receptor
EGF Receptor kinase activity (EGFR-NIH3T3 assay) in whole cells was measured as described in detail in PCT Publication WO9640116, filed Jun. 5, 1996, by Tang et al., and entitled “Indolinone Compounds for the Treatment of Disease,” incorporated herein by reference in its entirety, including any drawings.
The IC50 values measured in the EGF receptor phosphorylation assay are depicted in Table 2: […]

T2 sequence (P00533 25-1210): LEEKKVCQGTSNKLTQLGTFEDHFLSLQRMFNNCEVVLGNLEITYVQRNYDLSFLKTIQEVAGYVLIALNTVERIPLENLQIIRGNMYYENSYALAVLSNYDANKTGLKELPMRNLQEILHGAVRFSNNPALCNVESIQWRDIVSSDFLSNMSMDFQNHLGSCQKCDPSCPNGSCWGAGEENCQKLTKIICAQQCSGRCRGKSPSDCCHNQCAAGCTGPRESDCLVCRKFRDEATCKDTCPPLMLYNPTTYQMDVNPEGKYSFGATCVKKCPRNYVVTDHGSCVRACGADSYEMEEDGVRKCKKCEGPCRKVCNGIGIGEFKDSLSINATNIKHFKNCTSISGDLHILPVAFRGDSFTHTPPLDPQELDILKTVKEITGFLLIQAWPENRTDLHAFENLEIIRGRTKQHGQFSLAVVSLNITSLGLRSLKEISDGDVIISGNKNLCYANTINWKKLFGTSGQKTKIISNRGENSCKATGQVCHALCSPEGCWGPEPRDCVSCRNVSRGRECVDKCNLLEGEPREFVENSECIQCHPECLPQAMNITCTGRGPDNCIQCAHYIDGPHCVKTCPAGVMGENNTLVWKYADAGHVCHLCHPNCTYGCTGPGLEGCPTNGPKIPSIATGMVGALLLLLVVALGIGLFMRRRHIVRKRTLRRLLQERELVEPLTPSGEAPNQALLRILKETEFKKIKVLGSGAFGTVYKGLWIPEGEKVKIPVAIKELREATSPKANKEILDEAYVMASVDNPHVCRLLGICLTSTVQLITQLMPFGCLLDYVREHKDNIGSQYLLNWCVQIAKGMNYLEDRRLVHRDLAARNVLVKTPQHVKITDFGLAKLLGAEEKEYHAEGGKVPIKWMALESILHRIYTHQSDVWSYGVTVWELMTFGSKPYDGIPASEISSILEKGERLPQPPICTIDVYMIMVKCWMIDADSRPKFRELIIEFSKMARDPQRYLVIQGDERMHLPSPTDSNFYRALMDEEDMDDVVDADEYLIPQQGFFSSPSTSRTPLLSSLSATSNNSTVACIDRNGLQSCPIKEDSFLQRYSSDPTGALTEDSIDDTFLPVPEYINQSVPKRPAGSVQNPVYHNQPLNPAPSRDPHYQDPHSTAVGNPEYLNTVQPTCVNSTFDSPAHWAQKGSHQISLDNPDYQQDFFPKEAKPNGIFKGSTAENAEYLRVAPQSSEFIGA
T1 sequence (P04049 whole entry): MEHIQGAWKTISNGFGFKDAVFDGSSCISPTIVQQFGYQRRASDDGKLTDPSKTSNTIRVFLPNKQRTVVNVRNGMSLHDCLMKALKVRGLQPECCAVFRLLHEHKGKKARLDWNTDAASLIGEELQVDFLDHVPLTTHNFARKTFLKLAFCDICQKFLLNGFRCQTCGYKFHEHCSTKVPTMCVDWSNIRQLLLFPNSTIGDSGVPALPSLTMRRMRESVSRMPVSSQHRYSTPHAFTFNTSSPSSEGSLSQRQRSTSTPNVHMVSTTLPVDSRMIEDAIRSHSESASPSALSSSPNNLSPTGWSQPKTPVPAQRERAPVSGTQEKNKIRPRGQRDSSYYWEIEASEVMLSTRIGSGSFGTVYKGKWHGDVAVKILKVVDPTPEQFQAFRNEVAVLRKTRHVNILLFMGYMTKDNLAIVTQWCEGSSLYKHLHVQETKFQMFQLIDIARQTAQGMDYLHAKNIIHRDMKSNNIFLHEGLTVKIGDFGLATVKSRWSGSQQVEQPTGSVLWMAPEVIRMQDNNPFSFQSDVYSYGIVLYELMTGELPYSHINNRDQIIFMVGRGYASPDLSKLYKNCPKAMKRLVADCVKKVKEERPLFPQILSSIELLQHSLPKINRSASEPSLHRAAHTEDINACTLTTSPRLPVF

SMILES: COC(=O)Nc1nc2ccc(Oc3ccccc3)nc2[nH]1 [Compound A-3]
- IC50 ([1]; 2% FBS, read-out: IC50 (μM) A549 (2% FBS)): 65 µM
- IC50 ([1]; 10% fetal calf serum in Ham's F12-K, read-out: IC50 (μM) A549): 22 µM
- melting point: > 280 °C (dec.)
- IC50 [2]: 6.1 µM
- IC50 [3]: 40 µM
- IC50 [4]: > 100 µM
